Laboratory results from patent US20230287044A1, “NOVEL ANTIBACTERIAL PEPTIDE AND USE THEREOF” (priority 2020, published 2023).
Read-outs that look alike come from different tables or passages of the source. Ends that are not written are not given here.

What was measured:
[1] = test system: MRPA (P. aeruginosa) CCARM 2180; assay type: cell-based, Pseudomonas aeruginosa; settings: CCARM 2180, 18 h
How it was run: (§1)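 Mid-log cultures grown in CAMHB and diluted to 1× 10^6 cfu/ml in PBS were mixed with an equal volume of peptide in CAMHB (80 µM to 0.63 µM twofold dilutions). MIC taken as the mean of three independent experiments.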

[2] = test system: MRAB (A. baumannii) ATCC BAA 1605; assay type: cell-based, Acinetobacter baumannii
How it was run: as §1

[3] = test system: MRSA (S. aureus) KCCM 40510; assay type: cell-based, Staphylococcus aureus
How it was run: as §1

[4] = test system: VRE (E. faecalis) ATCC 51575; assay type: cell-based, Enterococcus faecalis
How it was run: as §1

[5] = CAMHB, 37° C., 18 hours, average of three experiments

Substance | MIC MRPA (P. aeruginosa) CCARM 2180 [1] [µM] | MIC MRAB (A. baumannii) ATCC BAA 1605 [2, 5] [µM] | MIC MRSA (S. aureus) KCCM 40510 [3, 5] [µM] | MIC VRE (E. faecalis) ATCC 51575 [4, 5] [µM] | MIC MRAB (A. baumannii) ATCC BAA 1605 ([2]; ATCC BAA 1605, 18 h) [µM] | MIC MRSA (S. aureus) KCCM 40510 ([3]; KCCM 40510, 18 h) [µM] | MIC VRE (E. faecalis) ATCC 51575 ([4]; ATCC 51575, 18 h) [µM]
WLLWIALRKKR-NH2 [KSH1] | 40 | 5 | 2.5 | 5 | – | – | –
WLLWLYARKKR-NH2 [LSH9] | 40 | – | – | – | 5 | 10 | 10
WLLWVLWRKKR-NH2 [LSH3] | 20 | – | – | – | 1.25 | 2.5 | 2.5
WLLWVYVRKKR-NH2 [XSH2] | 20 | – | – | – | 1.25 | 25 | 5
WLVYVWLRKKR-NH2 [LSH2] | 20 | – | – | – | 1.25 | 5 | 5
WLWVWVRKKR-NH2 [LSH5] | 40 | – | – | – | 2.5 | 10 | 10
WVLWVWLRKKR-NH2 [LSH1] | 20 | – | – | – | 2.5 | 2.5 | 2.5
WVVWVVYRKKR-NH2 [LSH7] | >40 | – | – | – | 5 | 20 | 20
WVVWVYVRKKR-NH2 [LSH6] | 40 | – | – | – | 2.5 | 10 | 10
